“Also recorded” adds a separate entry of the source.
Key:
TtCBH7 = TtCBH7 (Thermothelomyces thermophilus, UniProt G2Q665); experiment: Kinetics and inhibition of TtCBH7 by mono/oligosaccharides with MUG2 as substrate (Lineweaver-Burk); assay type: biochemical, Thermothelomyces thermophila; details: for Inhibitory effect on TtCBH7 (in words): activity on MUG2, inhibitor 5 and 10 mM; for Kmapp: TtCBH7, substrate MUG2, in the presence of 10 mM inhibitor
Description: The release of methyl-umbelliferyl was followed by measuring the absorbance at A350. The inhibition of CBHs by specific mono/oligosaccharides was determined by estimating the enzymatic activity on MUG2 in presence of different inhibitor concentrations (5 and 10 mM). Kinetic analysis of inhibition was carried out on xylose (X1), xylobiose (X2), xylotriose (X3), mannose (M1), mannobiose (M2), mannotriose (M3), glucose (G1), cellobiose (G2), and xylosyl-cellobiose (XC). Lineweaver–Burk plots were drawn to determine Km, Vmax, and inhibition constant (Ki) values.
Figure 4 Inhibition studies of TtCBH7 by glucan, xylan, and mannan mono- and oligo-saccharides. Absorbance at 355 nm was measured after 30 min incubation with MUG2 at concentrations ranging from 0.1 to 2 mM, at 45°C, pH 5.0.

TtCBH6 = experiment: Kinetics and inhibition of TtCBH6 by mono/oligosaccharides with MUG2 as substrate (Lineweaver-Burk); assay type: biochemical, Thermothelomyces thermophila; details: for Inhibitory effect on TtCBH6 (in words): activity on MUG2, inhibitor 5 and 10 mM
Description: The release of methyl-umbelliferyl was followed by measuring the absorbance at […]. The inhibition of CBHs by specific mono/oligosaccharides was determined by estimating the enzymatic activity on MUG2 in presence of different inhibitor concentrations (5 and 10 mM). Kinetic analysis of inhibition was carried out on xylose (X1), xylobiose (X2), xylotriose (X3), mannose (M1), mannobiose (M2), mannotriose (M3), glucose (G1), cellobiose (G2), and xylosyl-cellobiose (XC). Lineweaver-Burk plots were drawn to determine Km, Vmax, and inhibition constant (Ki) values.

[1] = TtCBH7, substrate MUG2, inhibitor 5 mM (Km app)
[2] = TtCBH7, substrate MUG2, inhibitor 10 mM (Km app)
[3] = TtCBH6, substrate MUG2, inhibitor 5 mM (Km app)
[4] = TtCBH6, substrate MUG2, inhibitor 10 mM (Km app)
[5] = TtCBH7, substrate MUG2, inhibitor 10 mM

Sequence of TtCBH7 (G2Q665 entry or part of it): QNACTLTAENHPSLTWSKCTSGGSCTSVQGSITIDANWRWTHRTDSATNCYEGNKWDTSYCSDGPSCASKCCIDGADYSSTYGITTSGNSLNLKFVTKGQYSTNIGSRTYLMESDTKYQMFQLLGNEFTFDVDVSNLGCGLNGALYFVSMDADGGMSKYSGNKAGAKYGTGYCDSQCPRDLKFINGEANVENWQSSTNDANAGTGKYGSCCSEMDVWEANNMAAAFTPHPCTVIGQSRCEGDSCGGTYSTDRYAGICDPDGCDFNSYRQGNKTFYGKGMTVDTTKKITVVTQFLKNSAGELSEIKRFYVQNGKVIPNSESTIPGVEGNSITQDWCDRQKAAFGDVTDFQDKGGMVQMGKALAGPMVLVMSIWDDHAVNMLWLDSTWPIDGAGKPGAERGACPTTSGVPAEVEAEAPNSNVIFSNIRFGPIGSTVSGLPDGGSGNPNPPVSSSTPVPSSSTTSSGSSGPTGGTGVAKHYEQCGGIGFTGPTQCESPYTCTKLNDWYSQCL

Row | Compound | Km/Km^app (TtCBH7; [1]) | Km/Km^app (TtCBH7; [2]) | Inhibitory effect on TtCBH7 (in words) (TtCBH7) | Km/Km^app (TtCBH6; [3]) | Km/Km^app (TtCBH6; [4]) | Kmapp (TtCBH7) | Ki (TtCBH7; TtCBH7, substrate MUG2, inhibitor 5 mM) | Ki (TtCBH7; [5]) | Inhibitory effect on TtCBH6 (in words) (TtCBH6) | Km (TtCBH7; TtCBH7, absence of any inhibitor) | Km/Km^app (TtCBH7; TtCBH7, substrate MUG2, no inhibitor (Km), pH 5.0, 45°C) | Km/Km^app (TtCBH6; TtCBH6, substrate MUG2, no inhibitor (Km), pH 5.0, 45°C)
1 | OC1OC[C@@H](O[C@@H]2OC[C@@H](O[C@@H]3OC[C@@H](O)[C@H](O)[C@H]3O)[C@H](O)[C@H]2O)[C@H](O)[C@H]1O (some centres unmarked) [Xylotriose, xylotriose] | 0.77 µM | 0.95 µM | very weak inhibitory effect | 0.42 µM | 0.46 µM |  |  |  |  |  |  | 
2 | xylosyl-cellobiose | 0.99 µM | 1.01 µM |  | 0.43 µM | 0.48 µM |  |  |  |  |  |  | 
3 | O=C[C@H](O)[C@@H](O)[C@H](O[C@@H]1O[C@H](CO)[C@@H](O)[C@H](O)[C@H]1O)[C@H](O)CO [Cellobiose, cellobiose] | 4.04 µM | 6.54 µM | strong inhibitor; also recorded: strongly inhibited | 0.40 µM | 0.45 µM | 6.54 mM | 1.43 mM | 1.59 mM | no inhibitory effect |  |  | 
4 | OC[C@H]1O[C@@H](O[C@H]2[C@H](O)[C@H](O)C(O)O[C@@H]2CO)[C@@H](O)[C@@H](O)[C@@H]1O (some centres unmarked) [Mannobiose, mannobiose] | 0.91 µM | 1.04 µM |  | 0.38 µM | 0.35 µM | 1.04 mM |  |  |  |  |  | 
5 | mannotriose | 0.88 µM | 0.98 µM | very weak inhibitory effect | 0.41 µM | 0.44 µM |  |  |  |  |  |  | 
6 | OC[C@H]1OC(O)[C@H](O)[C@@H](O)[C@@H]1O (some centres unmarked) [Glucose, glucose] | 1.00 µM | 1.58 µM |  | 0.39 µM | 0.41 µM | 1.58 mM |  | 13.2 mM | no inhibitory effect |  |  | 
7 | OC1OC[C@@H](O[C@@H]2OC[C@@H](O)[C@H](O)[C@H]2O)[C@H](O)[C@H]1O (some centres unmarked) [Xylobiose, xylobiose] | 0.81 µM | 1.17 µM |  | 0.44 µM | 0.41 µM | 1.17 mM |  | 33.3 mM |  |  |  | 
8 | Cc1cc(=O)oc2cc(O[C@@H]3O[C@H](CO)[C@@H](O[C@@H]4O[C@H](CO)[C@@H](O)[C@H](O)[C@H]4O)[C@H](O)[C@H]3O)ccc12 [MUG2, 4-methyl-umbelliferyl-β-cellobiose] |  |  |  |  |  |  |  |  |  | 900 µM | 0.90 µM | 0.42 µM

— article PMC5917092, “Fine-Tuned Enzymatic Hydrolysis of Organosolv Pretreated Forest Materials for the Efficient Production of Cellobiose” (Frontiers in Chemistry, 2018)
